Legend:
A2780 = test: Cytotoxicity against human A2780 cells; format: functional
Saccharomyces cerevisiae [1] = test: Antifungal activity against Saccharomyces cerevisiae RS321NYCp50 by microtiter yeast assay; format: functional, organism-based
Saccharomyces cerevisiae [2] = test: Antifungal activity against Saccharomyces cerevisiae RS321NpRAD52 by microtiter yeast assay; format: functional, organism-based

Row | Structure (SMILES) | Activity (A2780) | Activity (Saccharomyces cerevisiae [1]) | Activity (Saccharomyces cerevisiae [2])
1 | CN(C)CCc1ccc(O)cc1 [HORDENINE] | 39% |  | 
2 | CN1CCc2c([nH]c3ccccc23)C1 | 38% |  | 
3 | CN(C=O)CCc1ccc(O)cc1 |  | Dose-dependent effect | Dose-dependent effect

— ChEMBL document CHEMBL1158797, “Alkaloids and aromatics of Cyathobasis fruticulosa (Bunge) Aellen” (2005)
